Laboratory results from patent US11478470B2, “Combination product of Bcl-2 inhibitor or Bcl-2/Bcl-xL dual inhibitor and BTK inhibitor and use thereof in the prevention and/or treatment of diseases” (ASCENTAGE PHARMA (SUZHOU) CO., LTD., priority 2018, dated 2022).
Like-named read-outs stand apart in the source and are kept apart here.

Columns and labels:
[1] = tested on: human OCI-LY1 (DLBCL) xenograft tumor; format: in vivo
Procedure: All animal experiments were strictly in accordance with the laboratory animal use and management practices of GenePharma Co., Ltd. and Ascentage Pharma Group Co., Ltd. The calculation of relevant parameters referred to the Chinese CFDA “Guidelines for Non-Clinical Research Techniques of Cytotoxic Antitumor Drugs”.
(§1) Animal body weight and tumor size were measured twice a week during the experiment. Tumor growth was observed periodically, and the animals were randomly divided into groups according to tumor size and mouse body weight when the tumors grew to an average volume of 100-200 mm^3. The conditions and death of the animals were observed every day. Routine monitoring included the effects of tumor growth and treatment on normal animal behaviors, including activity, feeding and drinking situations, weight gain or loss, eyes, coat and other abnormalities in the experimental animals. The deaths and clinical symptoms observed during the experiment were recorded in the raw data. The entire operations of administration, measurement of mouse body weight and tumor volume were performed in a clean bench. Plasma and tumor tissues were collected, weighed and photographed after the end of the last administration according to the experimental protocol. Plasma and tumor samples were frozen and stored at −80° C.
Tumor volume (TV) was calculated as: TV=a×b^2/2, in which a and b represented the length and width of the tumor as measured, respectively. The relative tumor volume (RTV) was calculated as: RTV=Vt/V1, in which V1 was the tumor volume at the time of grouping and administration, and Vt was the tumor volume measured on a day after administration. […] Change of body weight %=(measured body weight−body weight at the time of grouping)/body weight at the time of grouping×100%.
If the synergy factor was >1, there was a synergistic effect; if the synergistic factor=1, there was an additive effect; if the synergistic factor <1, there was an antagonistic effect.
In short, when the average tumor volume reached approximately 90 mm^3, grouping and administration started. Ibrutinib was administered at a dose of 15 mg/kg, i.v., qd, from the day of grouping, for 3 weeks. […] On the 13th day after grouping, the administration was stopped and the observation period started.

[2] = tested on: human DOHH2 (FL) xenograft tumor; format: in vivo; conditions: Cpd. 6 50 mg/kg, Ibrutinib 20 mg/kg
Procedure: . All animal experiments were strictly in accordance with the laboratory animal use and management practices of GenePharma Co., Ltd. and Ascentage Pharma Group Co., Ltd. The calculation of relevant parameters referred to the Chinese CFDA “Guidelines for Non-Clinical Research Techniques of Cytotoxic Antitumor Drugs”.
as §1
Tumor volume (TV) was calculated as: TV=a×b^2/2, in which a and b represented the length and width of the tumor as measured, respectively. The relative tumor volume (RTV) was calculated as: RTV=Vt/V1, in which V1 was the tumor volume at the time of grouping and administration, and Vt was the tumor volume measured on a day after administration. The evaluation index of anti-tumor activity was the relative tumor proliferation rate T/C (%), which was calculated as: relative tumor proliferation rate T/C (%)=(TRTV/CRTV)×100%, in which TRTV was the RTV of the treatment group, CRTV was the RTV of the vehicle control group; tumor remission rate (%) was calculated as: (the number of SD (stable disease), PR (tumor partial regression) and CR (tumor complete regression) in the tumor-bearing mice after treatment)/the total number of mice in the group×100%. Change of body weight %=(measured body weight−body weight at the time of grouping)/body weight at the time of grouping×100%.
; The synergistic analysis was performed by the following formula: synergy factor=((A/C)×(B/C))/(AB/C); A=RTV value of the group administered with A only; B=RTV value of the group administered with B only; C=RTV value of the vehicle control group; AB=RTV value of the group administered with A and B in combination (Clarke R. Issues in experimental design and endpoint analysis in the study of experimental cytotoxic agents in vivo in breast cancer and other models [J]. Breast Cancer Research & Treatment, 1997, 46(2-3): 255-278). If the synergy factor was >1, there was a synergistic effect; if the synergistic factor=1, there was an additive effect; if the synergistic factor <1, there was an antagonistic effect.

[3] = Cpd. 6 100 mg/kg p.o. qd, Ibrutinib 15 mg/kg i.v. qd, day 43
[4] = Cpd. 6 100 mg/kg, Ibrutinib 15 mg/kg, including CR, PR and SD
[5] = Cpd. 6 100 mg/kg, Ibrutinib 15 mg/kg, mice per group
[6] = Cpd. 6 100 mg/kg, Ibrutinib 15 mg/kg, mice per group, listed as Cpd. 6

`O=C(NS(=O)(=O)c1ccc(NC[C@H]2COCCO2)c([N+](=O)[O-])c1)c1ccc(N2CCN(CC3=C(c4ccc(Cl)cc4)CC4(CCC4)CC3)CC2)cc1Oc1cnc2[nH]ccc2c1` [Compound 6, (S)-N-((4-(((1,4-dioxan-2-yl)methyl)amino)-3-nitrophenyl)sulfonyl)-2-((1H-pyrrolo[2,3-b]pyridin-5-yl)oxy)-4-(4-((6-(4-chlorophenyl)spiro[3.5]non-6-en-7-yl)methyl)piperazin-1-yl)benzamide] was tested, and the “RTV on the 43rd day after administration (mean ± standard error)” value [1, 3] was 1.03 ± 0.33, the “T/C (%) on day 43 after administration” value [1, 3] was 4% and the “TGI (%) on day 43 after administration” value ([1]; Cpd. 6 100 mg/kg, Ibrutinib 15 mg/kg, TGI = 100 − T/C%) was 96%. For the same compound, the “RTV on day 50 after administration (mean ± standard error)” value ([1]; Cpd. 6 100 mg/kg, Ibrutinib 15 mg/kg, day 50) was 2.64 ± 0.55, the “remission rate % on day 43 after administration” value [1, 4] was 20% and the “remission rate % on day 50 after administration” value [1, 4] was “( 10% )”. For the same compound, the “remission rate % on day 68 after administration” value [1, 4] was “PR ( 0% )”, the “remission rate % on day 43 after administration” value ([1]; Cpd. 6 100 mg/kg, Ibrutinib 15 mg/kg, including CR, PR and SD, listed as Cpd. 6) was “( 100% )” and the “Tumor status on day 43 after administration: CR (tumor complete regression)” value [1, 5] was 1/5. The “Tumor status on day 43 after administration: PR (tumor partial regression)” value [1, 5] was 1/5, the “Tumor status on day 50 after administration: CR” value [1, 5] was 0/5 CR, and the “Tumor status on day 50 after administration: PR” value [1, 5] was 1/5 PR. The “Tumor status on day 68 after administration: CR” value [1, 5] was 0/5 CR, 0/5, the “Tumor status on day 68 after administration: PR” value [1, 5] was 0/5 CR, 0/5 and the “Tumor status on day 43 after administration: CR (tumor complete regression)” value [1, 6] was 1/5 CR, 1/5. For the same compound, the “Tumor status on day 43 after administration: PR (tumor partial regression)” value [1, 6] was 1/5 CR, 1/5, the “RTV on day 35 after administration (mean ± standard error)” value [2] was 7.5 ± 0.7 and the “T/C (%) on day 35 after administration” value [2] was 44.40%.
